From ChEMBL document CHEMBL1201862, “PubChem BioAssay data set” (2004) come the findings set out here.

A short description of assay [1]: Shn3 3'UTR reporter signal decrease – cell-based, Clone20 osteoblasts, firefly luciferase, cherry-pick, set 2, Schnurri-3 inhibitor project, dose response (AID 720490).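 Note: actives lower the luminescence signal as inhibitors.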 Type of assay: functional.
Assay [2] in a line: DRD fibroblast viability loss – cell-based, non-viral oncogenic, luminescence, dose response (AID 1934). Type of assay: functional. The following applies: Homo sapiens.
For assay [3], the system named is BJ. As to the kind of experiment: cells. Type of assay: functional, cell-based. The settings on record: Homo sapiens.
Assay [4] addresses Luciferin 4-monooxygenase (Photinus pyralis, UniProt P08659). As to the kind of experiment: inhibition of purified Photinus pyralis luciferase – biochemical, luminescence, dose response (AID 1891).
Assay [5] is described as follows: non-specific 3'UTR reporter inhibition in Clone20-Shn3RL – cell-based, Renilla luciferase, cherry-picked, counter-screen for Shn3 inhibitor project, dose response (AID 624133). Type of assay: functional. Background: The purpose of a counterscreen is to sort out artefacts and off-target activity.
Assay [6] in a line: reduction of Shn3 3'UTR-driven luciferase in osteoblasts – cell-based, Clone20 osteoblasts, firefly luciferase, cherry-picked, dose response (AID 624132).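 Note: firefly luciferase luminescence from reporter carrying the Shn3 3'UTR in osteoblasts.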 Type of assay: functional.
The subject of assay [7] is BJ. Description: BJ-TERT-LT-ST fibroblast viability loss – cell-based, RAS-independent, luminescence, dose response (AID 1935).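 Note: BJ fibroblasts immortalized with TERT plus LT and ST oncogenes.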 Type of assay: functional. The settings on record: Homo sapiens.
Assay [8] is described as follows: A Cell Based Secondary Assay To Explore Cytotoxicity of Compounds that Sensitize Mycobacterium Tuberculosis to Beta-Lactam Antibiotics. Type of assay: functional.
The nature of assay [9]: Luminescence-based counterscreen assay for KLF5 inhibitors: dose response cell-based high throughput screening assay to identify cytotoxic compounds using the IEC-6 intestinal epithelial cell line. [Related pubchem assays: 1700 (Primary screen.), 1834 (Confirmation screen.), 1858 (Summary AID.), 1905 (Counterscreen.)]. The class given is functional.
Assay [10] in a line: Luminescence Cell-Based Dose Confirmation HTS to Identify Inhibitors of Platelet Dense Granule Release. [Related pubchem assays: 1663 (Primary HTS), 1678 (Summary of Project)]. The class given is functional.
Assay [11] is described as follows: blockers of HIV-1 envelope-mediated cell-cell fusion – cherry-pick, dose response (AID 652057). Type of assay: functional, cell-based.
Assay [12] is described as follows: HIV-1 AD8 envelope cell-cell fusion blockers – cherry-pick, dose response (AID 652062).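 Note: luciferase signal from cell-cell fusion driven by HIV-1 clade B AD8 Env; potency is for inhibitors of fusion seen as a drop in luminescence.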 Type of assay: functional, cell-based.
Assay [13] deals with BJ. As to the kind of experiment: growth inhibition of engineered Ras-driven BJ cells – cell-based, alamar blue fluorescence, cherrypicked samples, dose response (AID 2631).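 Note: confirmatory dose-response assay in RAS-dependent BJ fibroblasts engineered with TERT, LT and ST, with cytotoxicity read by fluorescence.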 The settings on record: Homo sapiens. The class given is functional. (In general: The colour change of resazurin is a common sign of viable cells or microbes.)
The nature of assay [14]: blockers of HIV-1 ZM109 envelope-driven cell-cell fusion – HeLa effector, CEM target cells, luciferase, cherry-pick, dose response (AID 652058).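 Note: luciferase signal from HIV-1 Env mediated cell-cell fusion of effector and target cells.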 Type of assay: functional, cell-based.
Assay [15] can be described thus: viability loss in CEM21 cells – cell-based, CellTiter-Glo luminescence, cherry-picked, cytotoxicity control for viral fusion inhibitor project, dose response (AID 652042).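 Note: potency for signal decrease meaning cytotoxicity.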 The class given is functional. For orientation: In ATP-based viability assays light output follows the ATP content of the culture.
Assay [16] can be described thus: off-target signal loss in HeLa-CEM21 co-culture – HeLa F-luc CTL cells, cherry-picked, counter-screen for HIV-1 Env fusion inhibitor project, dose response (AID 652040).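 Note: potency for signal decrease marking cytotoxic or nonspecific inhibition.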 Type of assay: functional, cell-based.
Another assay deals with Jurkat. As to the kind of experiment: blockers of NF-kB activation in T cells – Jurkat, luciferase reporter, luminescence, B- and T-cell, dose response (AID 489004).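 Note: NF-kB luciferase reporter Jurkat cells stimulated with PMA plus ionomycin.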 The class given is functional, cell-based. The settings on record: Homo sapiens.
Assay [17] is described as follows: loss of viability in HepG2 cells – cell-based, CellTiter-Glo, cherry-picked, cytotoxicity control for Shn3 inhibitor project, dose response (AID 624134). The class given is functional.
The nature of assay [18]: HEK-293T viability loss, compound-treated – cell-based, uHTS hits, cytotoxicity control for B/T-cell NF-kB inhibitor project, dose response (AID 489019).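 Note: IC50 reflects cytotoxicity as loss of cell viability.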 Type of assay: functional.
Another assay has as its target Large T antigen (Simian virus 40, UniProt P03070). The class given is functional, Betapolyomavirus macacae.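 Note: Confirmatory-stage PubChem screen for compounds that inhibit SV40 T antigen.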
Assay [19] deals with Beta-2 adrenergic receptor (Homo sapiens, UniProt P07550). As to the kind of experiment: ADRB2 activation measured by internalization – cell-based, FAP fluorogen, flow cytometry, cherry pick 1, dose response (AID 588763). Type of assay: functional.
The subject of the next assay is HEK293. Description: cells. The following applies: Homo sapiens. The class given is functional, cell-based.
The target of assay [20] is T1, Nuclear receptor subfamily 0 group B member 1 (Homo sapiens, UniProt P51843).
T1 sequence (P51843 whole entry): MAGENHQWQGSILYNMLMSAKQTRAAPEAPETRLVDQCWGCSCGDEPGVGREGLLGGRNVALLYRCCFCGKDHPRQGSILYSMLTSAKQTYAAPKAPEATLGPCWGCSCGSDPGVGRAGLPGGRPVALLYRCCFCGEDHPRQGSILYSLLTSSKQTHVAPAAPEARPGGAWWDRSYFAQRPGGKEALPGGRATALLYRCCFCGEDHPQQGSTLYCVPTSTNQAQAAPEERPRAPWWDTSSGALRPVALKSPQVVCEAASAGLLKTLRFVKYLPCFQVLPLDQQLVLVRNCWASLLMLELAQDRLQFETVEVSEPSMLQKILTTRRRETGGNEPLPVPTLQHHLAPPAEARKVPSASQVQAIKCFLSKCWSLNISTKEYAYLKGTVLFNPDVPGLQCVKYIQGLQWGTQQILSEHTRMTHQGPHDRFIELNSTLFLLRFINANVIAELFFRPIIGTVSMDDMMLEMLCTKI
Description: Luminescence-based cell-based high throughput dose response assay for inhibitors of the orphan nuclear receptor subfamily 0, group B, member 1 (DAX1; NR0B1). [Related pubchem assays (depositor defined):AID504766, AID504790]. The class given is functional.

Another assay deals with CAAX prenyl protease 1 (Saccharomyces cerevisiae S288c, UniProt P47154). As to the kind of experiment: yeast CAAX protease Ste24 inhibition – biochemical, S. cerevisiae, plate reader, cherry-pick, dose response (AID 488815).
Assay [21] has as its target Dual specificity tyrosine-phosphorylation-regulated kinase 1A (Rattus norvegicus, UniProt Q63470). Type of assay: biochemical, Homo sapiens.
The target of assay [22] is CAAX prenyl protease 2 (Homo sapiens, UniProt Q9Y256). Description: inhibition of Ras-converting CAAX protease Rce1 – biochemical, yeast membranes, quenched-peptide fluorescence, cherry-pick, dose response (AID 588849).
The target of the next assay is Trypsin (Sus scrofa, UniProt P00761). As to the kind of experiment: trypsin protease activity blockade – biochemical, quenched peptide fluorescence, cherry-pick, selectivity assay for Rce1 protease inhibitor project, dose response (AID 488789).
The nature of assay [23]: Luminescence Cell-Based Dose Retest to Confirm Inhibitors of Cancer Stem Cells. [Related pubchem assays (depositor defined):AID2717, AID2721]. The following applies: Homo sapiens. The class given is functional.
The nature of assay [24]: viability of PTEN-deleted HCT116 cells – cell-based, HCT116 PTEN knockout, dose response (AID 1047).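 Note: HCT116 colon tumor cells with PTEN knocked out; cells exposed to compound for 60 hours before readout; potency for loss of cell viability measured by luminescence.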 The class given is functional.
For the next assay, the target named is T2, Protein skinhead-1 (Caenorhabditis elegans, UniProt P34707).
T2 sequence (P34707 whole entry): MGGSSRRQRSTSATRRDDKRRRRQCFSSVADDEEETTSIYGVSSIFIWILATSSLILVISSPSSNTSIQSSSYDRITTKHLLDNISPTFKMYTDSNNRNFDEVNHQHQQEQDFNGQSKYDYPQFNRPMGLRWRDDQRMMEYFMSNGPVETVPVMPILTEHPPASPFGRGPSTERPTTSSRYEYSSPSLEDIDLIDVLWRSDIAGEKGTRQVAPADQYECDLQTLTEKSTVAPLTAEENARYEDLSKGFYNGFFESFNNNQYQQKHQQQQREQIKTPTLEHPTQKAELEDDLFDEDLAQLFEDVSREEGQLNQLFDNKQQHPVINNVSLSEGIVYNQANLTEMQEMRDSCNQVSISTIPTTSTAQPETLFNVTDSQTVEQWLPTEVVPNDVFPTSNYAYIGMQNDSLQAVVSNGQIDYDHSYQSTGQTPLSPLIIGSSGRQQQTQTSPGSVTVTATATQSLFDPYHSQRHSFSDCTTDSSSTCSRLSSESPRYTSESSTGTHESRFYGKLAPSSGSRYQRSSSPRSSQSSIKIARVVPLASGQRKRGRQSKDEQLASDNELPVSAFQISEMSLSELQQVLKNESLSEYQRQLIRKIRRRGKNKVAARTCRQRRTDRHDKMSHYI
Type of assay: functional.

Assay [25] is described as follows: microbe, parasite or virus in culture. The class given is functional. The settings on record: Mycobacterium tuberculosis.
The target in assay [26] is CAAX prenyl protease 2 (Saccharomyces cerevisiae S288c, UniProt Q03530). Type of assay: biochemical.
A short description of assay [27]: viability of HCT116 lacking mutant beta-catenin – cell-based, human colon tumor, dose response (AID 1045).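 Note: HCT116 colon tumor cells with beta catenin knocked out; cells exposed to compound for 60 hours.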 The class given is functional.

Calls of active or inactive are those of the source.

Beta-2 adrenergic receptor, sequence (P07550 whole entry): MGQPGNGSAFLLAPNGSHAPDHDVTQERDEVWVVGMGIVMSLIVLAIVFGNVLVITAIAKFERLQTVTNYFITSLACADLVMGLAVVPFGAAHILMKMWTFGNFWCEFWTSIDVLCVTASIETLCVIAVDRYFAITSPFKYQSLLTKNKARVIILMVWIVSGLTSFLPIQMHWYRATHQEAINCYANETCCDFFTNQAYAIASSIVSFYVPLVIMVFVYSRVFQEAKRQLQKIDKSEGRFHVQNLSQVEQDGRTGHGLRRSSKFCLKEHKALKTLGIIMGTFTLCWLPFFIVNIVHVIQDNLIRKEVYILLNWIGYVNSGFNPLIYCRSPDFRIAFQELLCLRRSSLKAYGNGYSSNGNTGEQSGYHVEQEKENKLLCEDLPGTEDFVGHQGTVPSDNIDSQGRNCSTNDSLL
Large T antigen, sequence (P03070 whole entry): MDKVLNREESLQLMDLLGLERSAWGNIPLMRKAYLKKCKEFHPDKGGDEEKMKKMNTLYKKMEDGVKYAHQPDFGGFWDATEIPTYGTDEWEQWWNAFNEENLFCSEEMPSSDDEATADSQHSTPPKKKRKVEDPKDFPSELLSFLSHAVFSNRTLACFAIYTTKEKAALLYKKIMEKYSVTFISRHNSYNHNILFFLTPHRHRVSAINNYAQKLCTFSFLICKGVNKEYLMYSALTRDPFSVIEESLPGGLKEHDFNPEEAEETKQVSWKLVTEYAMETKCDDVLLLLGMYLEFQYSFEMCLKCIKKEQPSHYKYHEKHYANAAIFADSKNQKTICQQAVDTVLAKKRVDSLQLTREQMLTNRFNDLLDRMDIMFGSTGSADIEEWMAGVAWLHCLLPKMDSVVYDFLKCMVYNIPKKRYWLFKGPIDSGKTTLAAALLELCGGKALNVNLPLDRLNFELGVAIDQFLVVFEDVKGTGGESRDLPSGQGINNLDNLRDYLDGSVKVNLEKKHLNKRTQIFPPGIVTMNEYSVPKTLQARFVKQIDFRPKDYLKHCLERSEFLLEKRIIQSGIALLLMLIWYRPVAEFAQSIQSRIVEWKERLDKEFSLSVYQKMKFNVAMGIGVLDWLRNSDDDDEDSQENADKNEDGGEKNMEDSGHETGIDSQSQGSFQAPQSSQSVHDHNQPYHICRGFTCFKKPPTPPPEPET
CAAX prenyl protease 2 (Saccharomyces cerevisiae S288c, UniProt Q03530), sequence (Q03530 whole entry): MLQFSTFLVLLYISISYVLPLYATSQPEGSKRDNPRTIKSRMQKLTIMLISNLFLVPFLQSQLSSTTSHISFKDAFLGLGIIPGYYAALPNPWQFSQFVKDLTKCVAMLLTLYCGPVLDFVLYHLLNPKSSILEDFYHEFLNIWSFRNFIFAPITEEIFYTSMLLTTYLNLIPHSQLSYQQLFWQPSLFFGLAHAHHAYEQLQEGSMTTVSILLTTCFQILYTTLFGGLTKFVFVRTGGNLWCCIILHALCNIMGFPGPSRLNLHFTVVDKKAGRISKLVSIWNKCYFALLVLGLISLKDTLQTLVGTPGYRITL
CAAX prenyl protease 2 (Homo sapiens, UniProt Q9Y256), sequence (Q9Y256 whole entry): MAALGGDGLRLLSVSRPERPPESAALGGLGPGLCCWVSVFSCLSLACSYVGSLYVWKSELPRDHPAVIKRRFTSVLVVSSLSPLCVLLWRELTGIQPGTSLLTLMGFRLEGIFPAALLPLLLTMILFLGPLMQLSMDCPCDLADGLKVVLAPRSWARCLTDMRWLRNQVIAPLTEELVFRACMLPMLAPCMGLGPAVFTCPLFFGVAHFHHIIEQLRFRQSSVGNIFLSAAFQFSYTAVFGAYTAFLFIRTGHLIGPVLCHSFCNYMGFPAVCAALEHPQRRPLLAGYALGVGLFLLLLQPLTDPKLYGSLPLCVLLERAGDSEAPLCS
Trypsin, sequence (P00761 whole entry): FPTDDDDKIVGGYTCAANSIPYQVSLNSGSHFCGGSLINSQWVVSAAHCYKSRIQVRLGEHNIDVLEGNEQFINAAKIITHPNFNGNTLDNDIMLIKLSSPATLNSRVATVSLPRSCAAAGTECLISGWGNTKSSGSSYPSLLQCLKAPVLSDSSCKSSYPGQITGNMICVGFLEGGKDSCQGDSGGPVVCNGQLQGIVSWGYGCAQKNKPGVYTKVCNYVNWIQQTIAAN
CAAX prenyl protease 1, sequence (P47154 whole entry): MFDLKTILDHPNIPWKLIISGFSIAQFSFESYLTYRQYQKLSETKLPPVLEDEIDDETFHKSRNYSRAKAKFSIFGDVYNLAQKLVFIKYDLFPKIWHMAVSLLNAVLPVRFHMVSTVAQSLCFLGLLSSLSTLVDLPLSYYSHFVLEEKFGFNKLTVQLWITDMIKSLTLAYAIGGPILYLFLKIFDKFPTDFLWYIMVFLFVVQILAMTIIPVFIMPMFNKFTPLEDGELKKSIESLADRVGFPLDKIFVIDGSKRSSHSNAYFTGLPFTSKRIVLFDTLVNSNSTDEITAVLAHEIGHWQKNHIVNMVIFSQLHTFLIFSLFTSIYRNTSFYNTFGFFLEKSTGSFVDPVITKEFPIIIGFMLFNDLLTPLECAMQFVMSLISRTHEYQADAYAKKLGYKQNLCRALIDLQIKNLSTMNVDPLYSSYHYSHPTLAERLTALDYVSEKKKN
Luciferin 4-monooxygenase, sequence (P08659 whole entry): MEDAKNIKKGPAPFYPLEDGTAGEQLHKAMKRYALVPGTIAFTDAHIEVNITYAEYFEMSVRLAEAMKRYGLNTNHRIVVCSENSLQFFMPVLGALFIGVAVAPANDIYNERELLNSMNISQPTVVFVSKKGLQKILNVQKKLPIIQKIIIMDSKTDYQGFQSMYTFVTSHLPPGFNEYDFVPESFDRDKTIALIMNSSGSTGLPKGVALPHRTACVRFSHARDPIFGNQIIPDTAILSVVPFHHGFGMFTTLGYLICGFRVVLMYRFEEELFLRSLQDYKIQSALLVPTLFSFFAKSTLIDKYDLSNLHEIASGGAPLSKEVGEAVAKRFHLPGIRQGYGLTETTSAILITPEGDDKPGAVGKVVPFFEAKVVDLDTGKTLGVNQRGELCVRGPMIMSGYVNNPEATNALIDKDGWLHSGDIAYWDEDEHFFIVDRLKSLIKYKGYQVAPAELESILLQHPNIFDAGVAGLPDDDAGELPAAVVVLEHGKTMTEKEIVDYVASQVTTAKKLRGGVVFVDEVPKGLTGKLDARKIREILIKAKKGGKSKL

On to `COc1ccc(C(=O)Nc2nc3ccccc3s2)c(OC)c1`, for which the AC50 in assay [1] was 0.45 µM (active); in [5], 43.8 µM (active); in [6], 0.523 µM (active); in assay [11], 0.757 µM (active); in assay [12], 0.664 µM (active); in [14] it was 6.04 µM (active). The AC50 in [15] is 14.2 µM (active); in assay [16], < 0.26 µM (active); in [17], 33.5 µM (active). Besides, the EC50 in assay [2] is 7.2 µM (active); in the assay with BJ [3] it was 5.76 µM (active); in assay [4], 0.241 µM (active); in the assay with BJ [7] it was 17.1 µM (active); in [10], 1.54 µM (active); in the assay with BJ [13], > 133 µM (inactive). For the same compound, the CC50 in [8] is 29.7 µM (active). The figures for the concentration for half-maximal inhibition (IC50) (in assay [9]; in the assay on Jurkat; in assay [18]) were 7.69 µM (active), < 0.16 µM (active) and > 80 µM (inactive), respectively.

Regarding `CC(=O)c1cccc(S(=O)(=O)N2CCCC(c3nc(-c4ccc(C)o4)no3)C2)c1` (stereo unspecified), the half-maximal inhibitory concentration (IC50) at Large T antigen was 36.4 µM (active). In addition, in assay [19], the EC50 was 0.143 µM (active).

Turning to `CCc1ccc(S(=O)(=O)Nc2c(C)nc3ncnn3c2O)cc1`, the IC50 (with HEK293; in assay [20]) was > 67.5 µM (inactive) throughout.

For `Cc1ccc(C(=O)OCC(=O)Nc2nc(-c3ccccc3)cs2)cc1NC(=O)c1ccco1`, the EC50 in assay [19] was 1.41 µM (active).

With `COc1ccc2c3c([nH]c2c1)C(C)=NCC3` [HARMALINE], the half-maximal activity concentration (AC50) at CAAX prenyl protease 1 is 2.77 µM (active); in [21], 1.24 µM (active).

On to `COc1ccc(S(=O)(=O)Cc2ccc(C(=O)NC3CC3)o2)cc1`, for which the IC50 (in the assay with HEK293; in assay [20]) was > 67.6 µM (inactive) each time.

For the compound `COc1ccc(CNC(=O)c2c(N)n(CCCN3CCOCC3)c3nc4ccccc4nc23)cc1`, the AC50 was 23.9 µM (active) on CAAX prenyl protease 2 [22], 10.5 µM (active) at Trypsin, 6.56 µM (active) in assay [23] and 22.9 µM (active) on CAAX prenyl protease 2 [26]. Besides, the figures for the EC50 in assay [24] and in assay [27] were 17.4 µM (active) and 15.3 µM (active), respectively. In addition, the IC50 on Protein skinhead-1 was > 100 µM (inactive). Also, the CC50 in assay [25] is 24.5 µM (active).

For orientation: AC50 means the midpoint of the concentration-response curve, whichever way the signal moves. A word on the EC50: it is the concentration giving half of the maximal effect. Usually IC50 stands for the point on the concentration scale where inhibition reaches its midpoint.
